Laboratory results as given in patent US6936270B2, “Device and method for treating conditions of a joint” (Control Delivery Systems, Inc., priority 2000, dated 2005).
Where two headings read alike, the source gives them in different places.

Legend:
[1] = Synovial fluid concentration of fluocinolone acetonide after FA screw implant in the stifle joint of sheep; format: in vivo, Ovis aries (Sheep); conditions: at three and eight weeks, FIG. 1
Description: The objective of this study was to determine both the local and systemic pharmacokinetic profile of an intra-articular fluocinolone acetonide (FA screw) implant in the stifle joint of sheep. The animals underwent surgical implantation of the FA Screw test device in the stifle joint on Day 1. Following a recovery period, blood and synovial fluid were collected periodically for pharmacokinetic determination. Following completion of a 24 month observation period, the animals were euthanized and subjected to necropsy.
Devices were administered once via surgical implantation on Day 1.
The implant was a polymer-coated, sustained-release delivery system for Fluocinolone Acetonide (FA). The implant contained 55 mg of FA and was designed to deliver the drug for approximately 3 years. The tablet core contained approximately 55 mg of FA granulated with 10% PVA. The tablet core was positioned and adhered via an adhesive, such as a silicone adhesive, in the interchangeable head of the bone screw. The overall device geometry was that of a cancellous bone screw (i.e. the base) in which the head of the screw has been hollowed out to accept a removable cup (i.e. the payload) containing the drug tablet. In this embodiment, the screw was approximately 11/16″ in length and is no more than ¼″ at its widest point (i.e. the screw head), The payload was sized to fit into the screw and to accommodate the tablet. […]

[2] = Fluocinolone acetonide concentration in dog synovial fluid after intraarticular implants in knee joints; format: in vivo, Canis familiaris; conditions: for concentration at 3 day / concentration at 7 day / concentration at 21 day / concentration at 29 day / concentration at 56 day: dog, other: bilateral intraarticular implants (knee joints)
Method: Devices were administered once via bilateral intraarticular implants. The day of surgical implantation was Day 1. The devices were made as follows. Fluocinolone acetonide, USP, was compressed into 1.5 mm diameter tablets using standard pharmaceutical methods. The tablets were placed into preformed cups made from silicone elastomer. Cup size was dependent on dosage form. These cups were attached to […] (PVA) suture tabs. For the 2 mg implants, the surface of the tablet not coated with silicone was attached to a suture tab with PVA solution. For the […] implant, a side of the silicone cup was attached perpendicular to the suture tab. Finally, the assemblies were dip coated with PVA. The implants were then cured at 135° C. for 5 hours and placed within the primary package. The product in the primary package was placed in a self-adhesive pouch and sterilized using gamma irradiation. Surgery was performed on both knee joints of all animals. A lateral skin incision was made to expose the fascia lata overlying the vastus lateralis cranially and the biceps fernoris caudally. The joint was exposed through an incision in the lateral intermuscular septum to expose the femur by anterior retraction of the vastus lateralis and posterior retraction of the biceps femoris. Care was taken not to disrupt the tendon of origin of the long digital extensor as it originates from the lateral femoral condyle. The joint capsule was opened, the patella luxated medially, and the joint was held in full flexion. 2 mg devices were placed in the right leg and 18 mg implants were placed in the left leg. The implants were placed within the anterior intercondyloid fossa, immediately lateral to the origin of the posterior cruciate ligament. The bone may be slightly deepened at this location with a curette to accept the implant. The implant was sutured in place to the posterior cruciate ligament. The joint capsule was closed with 3/0 PDS in a simple interrupted fashion. The retinaculum and intermuscular septum were closed with 2/0 Vicryl in a continuous pattern. The fascia lata were closed with 2/0 PDS, and the subcutaneous tissues with 3/0 PDS, both in a simple continuous pattern. The skin was closed with 3/0 Vicryl in a subcuticular pattern. After anesthesia (acepromazine, 0.2 mg/kg. IM followed by sodium pentobarbital, 22 mg/kg, IV, to effect), an attempt was made to obtain synovial fluid. Syriovial fluid samples were immediately stored at ≦−70° C. in polypropylene tubes until transferred.

increase in FA concentrations in the synovial fluid [1]: three-fold increase
Assayed Concentrations of Fluocinolone Acetonide in Dog Synovial Fluid Samples (Right Leg) ([2]; Right leg (2 mg devices), Dog 1001, Day 21): 7.27 ng/mL
Assayed Concentrations of Fluocinolone Acetonide in Dog Synovial Fluid Samples (Right Leg) ([2]; Right leg (2 mg devices), Dog 2001, Day 7): 98.4 ng/mL
Assayed Concentrations of Fluocinolone Acetonide in Dog Synovial Fluid Samples (Right Leg) ([2]; Right leg (2 mg devices), Dog 2002, Day 7): 47.7 ng/mL
Assayed Concentrations of Fluocinolone Acetonide in Dog Synovial Fluid Samples (Right Leg) ([2]; Right leg (2 mg devices), Dog 2002, Day 21): 144 ng/mL
Assayed Concentrations of Fluocinolone Acetonide in Dog Synovial Fluid Samples (Right Leg) ([2]; Right leg (2 mg devices), Dog 3001, Day 7): 171 ng/mL
Assayed Concentrations of Fluocinolone Acetonide in Dog Synovial Fluid Samples (Right Leg) ([2]; Right leg (2 mg devices), Dog 3001, Day 21): 51.5 ng/mL
Assayed Concentrations of Fluocinolone Acetonide in Dog Synovial Fluid Samples (Right Leg) ([2]; Right leg (2 mg devices), Dog 3002, Day 7): 8.30 ng/mL
concentration at 3 day ([2]; synovial fluid (left knee joint), 18 mg, Left leg (18 mg implants), Dog 1001, Day 3, read-out: Assayed Concentrations of Fluocinolone Acetonide in Dog Synovial Fluid Samples (Left Leg)): 656 ng/mL
concentration at 7 day ([2]; synovial fluid (left knee joint), 18 mg, Left leg (18 mg implants), Dog 1001, Day 7, read-out: Assayed Concentrations of Fluocinolone Acetonide in Dog Synovial Fluid Samples (Left Leg)): 290 ng/mL
concentration at 21 day ([2]; synovial fluid (left knee joint), 18 mg, Left leg (18 mg implants), Dog 1001, Day 21, read-out: Assayed Concentrations of Fluocinolone Acetonide in Dog Synovial Fluid Samples (Left Leg)): 1070 ng/mL
concentration at 29 day ([2]; synovial fluid (left knee joint), 18 mg, Left leg (18 mg implants), Dog 1001, Day 29, read-out: Assayed Concentrations of Fluocinolone Acetonide in Dog Synovial Fluid Samples (Left Leg)): 457 ng/mL
concentration at 56 day ([2]; synovial fluid (left knee joint), 18 mg, Left leg (18 mg implants), Dog 1001, Day 56, read-out: Assayed Concentrations of Fluocinolone Acetonide in Dog Synovial Fluid Samples (Left Leg)): 202000 ng/mL
concentration at 3 day ([2]; synovial fluid (left knee joint), 18 mg, Left leg (18 mg implants), Dog 1002, Day 3, read-out: Assayed Concentrations of Fluocinolone Acetonide in Dog Synovial Fluid Samples (Left Leg)): 357 ng/mL
concentration at 7 day ([2]; synovial fluid (left knee joint), 18 mg, Left leg (18 mg implants), Dog 1002, Day 7, read-out: Assayed Concentrations of Fluocinolone Acetonide in Dog Synovial Fluid Samples (Left Leg)): 405 ng/mL
concentration at 21 day ([2]; synovial fluid (left knee joint), 18 mg, Left leg (18 mg implants), Dog 1002, Day 21, read-out: Assayed Concentrations of Fluocinolone Acetonide in Dog Synovial Fluid Samples (Left Leg)): 373 ng/mL
concentration at 29 day ([2]; synovial fluid (left knee joint), 18 mg, Left leg (18 mg implants), Dog 1002, Day 29, read-out: Assayed Concentrations of Fluocinolone Acetonide in Dog Synovial Fluid Samples (Left Leg)): 379 ng/mL
concentration at 56 day ([2]; synovial fluid (left knee joint), 18 mg, Left leg (18 mg implants), Dog 1002, Day 56, read-out: Assayed Concentrations of Fluocinolone Acetonide in Dog Synovial Fluid Samples (Left Leg)): 541 ng/mL
concentration at 3 day ([2]; synovial fluid (left knee joint), 18 mg, Left leg (18 mg implants), Dog 2001, Day 3, read-out: Assayed Concentrations of Fluocinolone Acetonide in Dog Synovial Fluid Samples (Left Leg)): 89 ng/mL
concentration at 7 day ([2]; synovial fluid (left knee joint), 18 mg, Left leg (18 mg implants), Dog 2001, Day 7, read-out: Assayed Concentrations of Fluocinolone Acetonide in Dog Synovial Fluid Samples (Left Leg)): 194 ng/mL
concentration at 29 day ([2]; synovial fluid (left knee joint), 18 mg, Left leg (18 mg implants), Dog 2001, Day 29, read-out: Assayed Concentrations of Fluocinolone Acetonide in Dog Synovial Fluid Samples (Left Leg)): 57.8 ng/mL
concentration at 3 day ([2]; synovial fluid (left knee joint), 18 mg, Left leg (18 mg implants), Dog 2002, Day 3, read-out: Assayed Concentrations of Fluocinolone Acetonide in Dog Synovial Fluid Samples (Left Leg)): 193 ng/mL
concentration at 7 day ([2]; synovial fluid (left knee joint), 18 mg, Left leg (18 mg implants), Dog 2002, Day 7, read-out: Assayed Concentrations of Fluocinolone Acetonide in Dog Synovial Fluid Samples (Left Leg)): 279 ng/mL
concentration at 21 day ([2]; synovial fluid (left knee joint), 18 mg, Left leg (18 mg implants), Dog 2002, Day 21, read-out: Assayed Concentrations of Fluocinolone Acetonide in Dog Synovial Fluid Samples (Left Leg)): 393 ng/mL
concentration at 29 day ([2]; synovial fluid (left knee joint), 18 mg, Left leg (18 mg implants), Dog 2002, Day 29, read-out: Assayed Concentrations of Fluocinolone Acetonide in Dog Synovial Fluid Samples (Left Leg)): 956 ng/mL
concentration at 3 day ([2]; synovial fluid (left knee joint), 18 mg, Left leg (18 mg implants), Dog 3001, Day 3, read-out: Assayed Concentrations of Fluocinolone Acetonide in Dog Synovial Fluid Samples (Left Leg)): 788 ng/mL
concentration at 7 day ([2]; synovial fluid (left knee joint), 18 mg, Left leg (18 mg implants), Dog 3001, Day 7, read-out: Assayed Concentrations of Fluocinolone Acetonide in Dog Synovial Fluid Samples (Left Leg)): 35300 ng/mL
concentration at 21 day ([2]; synovial fluid (left knee joint), 18 mg, Left leg (18 mg implants), Dog 3001, Day 21, read-out: Assayed Concentrations of Fluocinolone Acetonide in Dog Synovial Fluid Samples (Left Leg)): 5180 ng/mL
concentration at 56 day ([2]; synovial fluid (left knee joint), 18 mg, Left leg (18 mg implants), Dog 3001, Day 56, read-out: Assayed Concentrations of Fluocinolone Acetonide in Dog Synovial Fluid Samples (Left Leg)): 36.9 ng/mL
concentration at 3 day ([2]; synovial fluid (left knee joint), 18 mg, Left leg (18 mg implants), Dog 3002, Day 3, read-out: Assayed Concentrations of Fluocinolone Acetonide in Dog Synovial Fluid Samples (Left Leg)): 207 ng/mL
concentration at 7 day ([2]; synovial fluid (left knee joint), 18 mg, Left leg (18 mg implants), Dog 3002, Day 7, read-out: Assayed Concentrations of Fluocinolone Acetonide in Dog Synovial Fluid Samples (Left Leg)): 251 ng/mL
concentration at 21 day ([2]; synovial fluid (left knee joint), 18 mg, Left leg (18 mg implants), Dog 3002, Day 21, read-out: Assayed Concentrations of Fluocinolone Acetonide in Dog Synovial Fluid Samples (Left Leg)): 276 ng/mL
concentration at 29 day ([2]; synovial fluid (left knee joint), 18 mg, Left leg (18 mg implants), Dog 3002, Day 29, read-out: Assayed Concentrations of Fluocinolone Acetonide in Dog Synovial Fluid Samples (Left Leg)): 210 ng/mL
concentration at 3 day ([2]; synovial fluid (right knee joint), 2 mg, Right leg (2 mg devices), Dog 1001, Day 3, read-out: Assayed Concentrations of Fluocinolone Acetonide in Dog Synovial Fluid Samples (Right Leg)): 52 ng/mL
concentration at 7 day ([2]; synovial fluid (right knee joint), 2 mg, Right leg (2 mg devices), Dog 1001, Day 7, read-out: Assayed Concentrations of Fluocinolone Acetonide in Dog Synovial Fluid Samples (Right Leg)): 62.4 ng/mL
concentration at 56 day ([2]; synovial fluid (right knee joint), 2 mg, Right leg (2 mg devices), Dog 1001, Day 56, read-out: Assayed Concentrations of Fluocinolone Acetonide in Dog Synovial Fluid Samples (Right Leg)): 19.3 ng/mL
concentration at 3 day ([2]; synovial fluid (right knee joint), 2 mg, Right leg (2 mg devices), Dog 1002, Day 3, read-out: Assayed Concentrations of Fluocinolone Acetonide in Dog Synovial Fluid Samples (Right Leg)): 36.6 ng/mL
concentration at 3 day ([2]; synovial fluid (right knee joint), 2 mg, Right leg (2 mg devices), Dog 2001, Day 3, read-out: Assayed Concentrations of Fluocinolone Acetonide in Dog Synovial Fluid Samples (Right Leg)): 600 ng/mL
concentration at 3 day ([2]; synovial fluid (right knee joint), 2 mg, Right leg (2 mg devices), Dog 2002, Day 3, read-out: Assayed Concentrations of Fluocinolone Acetonide in Dog Synovial Fluid Samples (Right Leg)): 24.4 ng/mL
concentration at 3 day ([2]; synovial fluid (right knee joint), 2 mg, Right leg (2 mg devices), Dog 3001, Day 3, read-out: Assayed Concentrations of Fluocinolone Acetonide in Dog Synovial Fluid Samples (Right Leg)): 57.9 ng/mL
concentration at 29 day ([2]; synovial fluid (right knee joint), 2 mg, Right leg (2 mg devices), Dog 3001, Day 29, read-out: Assayed Concentrations of Fluocinolone Acetonide in Dog Synovial Fluid Samples (Right Leg)): 16.4 ng/mL
concentration at 3 day ([2]; synovial fluid (right knee joint), 2 mg, Right leg (2 mg devices), Dog 3002, Day 3, read-out: Assayed Concentrations of Fluocinolone Acetonide in Dog Synovial Fluid Samples (Right Leg)): 40.7 ng/mL
concentration at 29 day ([2]; synovial fluid (right knee joint), 2 mg, Right leg (2 mg devices), Dog 3002, Day 29, read-out: Assayed Concentrations of Fluocinolone Acetonide in Dog Synovial Fluid Samples (Right Leg)): 7.86 ng/mL
Compound: CC1(C)O[C@@H]2C[C@H]3[C@@H]4C[C@H](F)C5=CC(=O)C=C[C@]5(C)[C@@]4(F)[C@@H](O)C[C@]3(C)[C@]2(C(=O)CO)O1 [Fluocinolone Acetonide]
